Experimental data published in patent publication US20170000126A1, “METHOD FOR INHIBITING CONIDIAL GERMINATION AND MYCELIAL GROWTH OF FUNGI SYMBIOTICALLY ASSOCIATED WITH BARK BEETLES” (Montana State University - Billings, priority 2015, published 2017).

Assays:
[1] = system: Ceratocystiopsis brevicomi; test: disk diffusion assay; type: cell-based; details: C. brevicomi; 50-300 μg per disk
Protocol: (§1) The second assay is based on the standard “disk diffusion assay” routinely used in antimicrobial testing. Fungi are grown and harvested as for the microplate assay. After diluting 1:10, 150 μl of filtered conidia are spread evenly onto an Malt Extract Agar (MEA) plate. For each plate, 50 μg (0.12 μmole), 100 μg (0.25 μmole), 200 μg (0.50 μmole) and 300 μg (0.75 μmole) of the appropriate molecule (dissolved in DMSO) are spotted onto four separate Whatman Grade AA 6 mm filter disks. A control disk with 20 μl of DMSO only is also prepared. The DMSO is allowed to evaporate completely from each disk at room temperature and then the molecule-impregnated disks are positioned equidistant from each other on a plate. Plates are incubated at room temperature for 3 to 7 days, depending on the fungal species. At the end of the incubation period, the zone of inhibition (i.e., the region around each disk where no growth is visible) is measured from edge to edge of visible growth across and over the center of the disk. Images of the disk assays are obtained using an Epson Perfection V750 Pro desktop scanner.
(§2) Strains of G. clavigera, O. montium and C. brevicomi were obtained from Dr. Diana Six at the University of Montana and maintained on MEA plates (see below) at room temperarture.
(§3) Each small molecule was dissolved in dimethyl sulfoxide (DMSO) as a 10 mM stock and diluted directly into 100 μl of the appropriate YPD medium at 50 μM, 100 μM, 200 μM and 300 μM final concentration (for the microplate assay) or spotted onto Whatman 6 mm filter disks in 50 microgram (μg), 100 μg, 200 μg or 300 μg amounts (for the disk diffusion assay). The control condition (no small molecule) included DMSO to a concentration equivalent to that of the small molecule-containing wells or filter disks.
(§4) In order to identify additional inhibitors of morphogenesis, we employed a core structure search of the Chembridge chemical database and identified 72 compounds of related structure to BH3I-1 (the “core structure” used in the database searches was defined as the benzylidene group attached to a thiazolidine ring). The BH3I-1-related molecules were tested in the disk diffusion assay (200 μg per disk) for anti-fungal activity against all three species of bark beetle-associated fungi. […] These molecules were retested three separate times with 50, 100, 200 and 300 μg per disk (FIGS. 6, 7, 8, 9, 10).

[2] = system: Grosmannia clavigera; test: disk diffusion assay; type: cell-based; details: G. clavigera; 50-300 μg per disk
Protocol: as §1, §2, §3, §4

[3] = system: Ophiostoma montium; test: disk diffusion assay; type: cell-based; details: O. montium; 50-300 μg per disk
Protocol: as §1, §2, §3, §4

[4] = system: C. albicans; details: previous finding of the inventors (ref. 5); cited from earlier work
[5] = system: Ceratocystiopsis brevicomi; test: microplate assay (conidial germination and mycelial growth); type: cell-based; details: C. brevicomi
Protocol: (§5) In the first assay, referred to as the “microplate assay”, fungi are first grown in liquid medium at 25° C. for 48 hours, and conidia are harvested by filtration through cheese cloth. The conidia are then transferred to the wells of an optical microplate containing (i) growth medium and (ii) varying concentrations of BH3I-1 (typically 0, 50, 100, 200 and 300 μM BH3I-1). The microplates are incubated for up to 120 hrs at 25° C. Germination and mycelial growth are monitored visually with a Nikon TE200 inverted microscope and spectrophotometrically in a Biotek Synergy H4 plate reader. For the spectrophotometric analysis, Optical Density 600 (OD600) readings are taken every six hours over the course of the experiment.
as §2
(§6) YPD medium (1% Yeast Extract, 2% Peptone and 2% Dextrose), a standard fungal growth medium, is used for these experiments. YPD plates included 1.5% agar.
as §3

[6] = system: Grosmannia clavigera; test: as above; type: cell-based; details: G. clavigera
Protocol: as §5, §2, §6, §3

[7] = system: Ophiostoma montium; test: as above; type: cell-based; details: O. montium
Protocol: as §5, §2, §6, §3

**Q.** With CCCC(C(=O)O)N1C(=O)C(=Cc2ccc(O)cc2)SC1=S (stereo not drawn) [BH3I-1-66, 2-[5-(4-hydroxybenzylidene)-4-oxo-2-thioxo-1,3-thiazolidin-3-yl]pentanoic acid] as the compound, how does the “anti-fungal activity (inhibition of conidial germination and mycelial growth)” value [1] read?
**A.** Its value is “inhibit the conidial germination and mycelial growth”.

**Q.** And the “anti-fungal activity (inhibition of conidial germination and mycelial growth)” value [2]?
**A.** Its value is “inhibit the conidial germination and mycelial growth”.

**Q.** What about the “anti-fungal activity (inhibition of conidial germination and mycelial growth)” value [3] of the same compound?
**A.** The value was “inhibit the conidial germination and mycelial growth”.

**Q.** With CCCC(C(=O)O)N1C(=O)C(=Cc2ccccc2Cl)SC1=S (stereo not drawn) [BH3I-1-69, 2-[5-(2-chlorobenzylidene)-4-oxo-2-thioxo-1,3-thiazolidin-3-yl]pentanoic acid] as the compound, how does the “anti-fungal activity (inhibition of conidial germination and mycelial growth)” value [1] read?
**A.** Its value is “inhibit the conidial germination and mycelial growth”.

**Q.** What about the “anti-fungal activity (inhibition of conidial germination and mycelial growth)” value [2] of the same compound?
**A.** Its value is “inhibit the conidial germination and mycelial growth”.

**Q.** And the “anti-fungal activity (inhibition of conidial germination and mycelial growth)” value [3]?
**A.** The value was “inhibit the conidial germination and mycelial growth”.

**Q.** Which results are given for CC(C)c1ccc(C=C2SC(=S)N(CC(=O)O)C2=O)cc1 [BH3I-1-68, [5-(4-isopropylbenzylidene)-4-oxo-2-thioxo-1,3-thiazolidin-3-yl]acetic acid]?
**A.** anti-fungal activity (inhibition of conidial germination and mycelial growth) [1]: inhibit the conidial germination and mycelial growth; anti-fungal activity (inhibition of conidial germination and mycelial growth) [2]: inhibit the conidial germination and mycelial growth; anti-fungal activity (inhibition of conidial germination and mycelial growth) [3]: inhibit the conidial germination and mycelial growth

**Q.** Which “anti-fungal activity (inhibition of conidial germination and mycelial growth)” value [1] does the source give for CC(C)C(C(=O)O)N1C(=O)C(=Cc2ccc(Cl)cc2)SC1=S (stereo not drawn) [BH3I-1-12, 2-[5-(4-chlorobenzylidene)-4-oxo-2-thioxo-1,3-thiazolidin-3-yl]-3-methylbutanoic acid] here?
**A.** Its value is “inhibit the conidial germination and mycelial growth”.

**Q.** And the “anti-fungal activity (inhibition of conidial germination and mycelial growth)” value [2]?
**A.** The value was “inhibit the conidial germination and mycelial growth”.

**Q.** What about the “anti-fungal activity (inhibition of conidial germination and mycelial growth)” value [3] of the same compound?
**A.** Its value is “inhibit the conidial germination and mycelial growth”.

**Q.** What does the source list for CC(C)C(C(=O)O)N1C(=O)C(=Cc2ccc(Br)cc2)SC1=S (stereo not drawn) [BH3I-1, 5-(p-Bromobenzylidine)-α-isopropyl-4-oxo-2-thioxo-3-thiozolidineacetic acid]?
**A.** inhibition of morphogenesis (yeast-to-filamentous growth transition) [4]: inhibits; anti-fungal activity (inhibition of conidial germination and mycelial growth) [1]: inhibit the conidial germination and mycelial growth; anti-fungal activity (inhibition of conidial germination and mycelial growth) [2]: inhibit the conidial germination and mycelial growth; anti-fungal activity (inhibition of conidial germination and mycelial growth) [3]: inhibit the conidial germination and mycelial growth; inhibition of conidial germination and mycelial growth [5]: inhibited conidial germination and mycelial growth; conidial cells failed to germinate ([6]; 100 μM): approximately 80%; mycelial growth of conidia that did germinate ([6]; 100 μM): mycelia grew for a few hours and then stopped; time for which growth inhibition was maintained ([6]; 25° C., YPD): 120 h; inhibition of conidial germination and mycelial growth [7]: inhibited conidial germination and mycelial growth
